The source of these data is PMC8280112, “Substrate reduction therapy for Krabbe disease and metachromatic leukodystrophy using a novel ceramide galactosyltransferase inhibitor” (Scientific Reports, 2021).

Where “and” joins values, the source holds several entries; their conditions need not be identical. Identical values can stand only once. Where only a bound is given, the exact number is not on record here.

The target of test [1] is T1, CGT in CHO cells stably expressing human UGT8 (Homo sapiens, UniProt Q16880).
T1 construct: expressed in transfected cells; host or cells: CHO cells stably expressing human UGT8
T1 sequence (Q16880 21-541): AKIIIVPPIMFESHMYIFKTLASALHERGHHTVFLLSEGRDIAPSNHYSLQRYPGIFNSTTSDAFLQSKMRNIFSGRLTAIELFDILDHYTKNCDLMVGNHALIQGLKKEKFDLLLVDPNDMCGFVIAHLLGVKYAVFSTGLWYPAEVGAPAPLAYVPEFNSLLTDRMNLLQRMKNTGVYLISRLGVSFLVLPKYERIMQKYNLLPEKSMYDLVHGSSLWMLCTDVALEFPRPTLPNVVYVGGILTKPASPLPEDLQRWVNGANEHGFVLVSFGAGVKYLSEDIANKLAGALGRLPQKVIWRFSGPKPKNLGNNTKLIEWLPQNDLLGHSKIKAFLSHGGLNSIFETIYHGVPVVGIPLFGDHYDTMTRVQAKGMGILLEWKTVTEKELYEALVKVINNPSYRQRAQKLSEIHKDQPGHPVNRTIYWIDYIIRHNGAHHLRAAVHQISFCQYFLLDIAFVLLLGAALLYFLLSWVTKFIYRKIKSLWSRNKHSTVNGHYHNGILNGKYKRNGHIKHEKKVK
Briefly: CGT cellular assay (intact-cell assay). In kind it is cell-based. As to the method:
3 × 10^4 CHO cells stably expressing human UGT8 were seeded in a 96-well TC plate in F12K + 10% FBS (Invitrogen, qualified, Australia, 10099141) and incubated at 37 °C, 5% CO2 overnight. Media was removed and compounds, diluted in F12K + 5% FBS (0.1% DMSO final) containing 1 µM eliglustat to prevent NBD-glucosylceramide formation, were added to the cells and incubated 2 h at 37 °C. NDB-(2R-OH)-C6-ceramide (BioMarin) in F12K + 5% FBS + 11% BSA was added to a final substrate concentration of 10 µM in 1% BSA and incubated 1 h at 37 °C before extracting in methanol/0.5% acetic acid containing N-dodecanoyl-NBD-galactosylceramide IS (1 µM). After 2 h shaking, the solution was centrifuged at 4000 rpm for 30 min, and 80 µL of supernatant was transferred to 40 µL H2O, mixed and centrifuged at 4000 rpm for 10 min. NDB-(2R-OH)-C6-galactosylceramide product was quantified by a Shimadzu ultra-fast liquid chromatography system (Shimadzu) coupled to an API 4000 mass spectrometer in ESI negative mode (Applied Biosystems) using a Kinetex C18 column (50 × 2.1 mm, 2.6 µm, 100 Å) (Phenomenex) with 0.1% formic acid and acetonitrile supplemented with 0.1% formic acid.

Test [2] deals with T2, Glucosylceramide synthase (GCS) (Canis lupus familiaris, UniProt A0A8I3MXG6).
T2 construct: endogenous in cells; host or cells: MDCK cell lysate
T2 sequence (A0A8I3MXG6 1-394): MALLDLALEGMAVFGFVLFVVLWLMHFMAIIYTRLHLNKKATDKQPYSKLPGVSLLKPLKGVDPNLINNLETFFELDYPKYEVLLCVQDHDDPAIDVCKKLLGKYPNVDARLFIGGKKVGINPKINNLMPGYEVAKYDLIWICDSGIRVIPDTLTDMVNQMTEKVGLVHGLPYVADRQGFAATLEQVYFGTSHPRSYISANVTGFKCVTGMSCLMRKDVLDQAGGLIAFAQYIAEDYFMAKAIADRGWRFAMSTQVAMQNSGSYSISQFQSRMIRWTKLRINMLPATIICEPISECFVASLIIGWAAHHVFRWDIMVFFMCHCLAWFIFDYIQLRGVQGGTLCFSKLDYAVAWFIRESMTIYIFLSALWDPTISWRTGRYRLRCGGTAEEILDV
Briefly: Glucosylceramide synthase assay. In kind it is biochemical. Conditions: MDCK cell lysate. The method, then:
Modified from Larsen et al.[46]. Briefly, 60 μg of MDCK cell lysate was incubated with […] in 100 mM Tris buffer (pH 7.5), 10 mM MgCl2, 1 mM dithiothreitol, 1 mM EGTA, 2 mM NAD, 100 μM UDP-glucose, 10 μM C6-NBD-Ceramide (Matreya), 35 μM DOPC, and 5 μM sulfatide (Sigma) at 37 °C for 1 h. The reaction was stopped with equal volume of acetonitrile and 50 μL was added to 100 μL of acetonitrile containing 100 ng/mL tolbutamide IS and centrifuged. Next, 70 μL of supernatant was mixed with 140 μL H2O before LC-MS analysis. NBD-Glucosylceramide quantification was performed on a Shimadzu ultra-fast liquid chromatography system (Shimadzu) coupled with an API 4000 triple quadrupole mass spectrometer in ESI positive mode (Applied Biosystems) and a Xbridge BEH130 CI 8, 100 mm × 4.6 mm i.d, 3.5 μm column (Waters). The mobile phase consisted of water and acetonitrile supplemented with 0.1% formic acid (v/v).

Broadly, the IC50 is the concentration that gives 50% inhibition. High values mean weaker potency, low ones greater potency.

Consider `C[C@H]1N(c2ccc(Br)cc2)C(=O)N(c2ccc(Br)cc2)C1(O)c1cccc(OC(F)(F)F)c1` (some centres unmarked) [S202], for which the IC50 in test [1] was 2 nM and 3.6 nM and 3 nM; in test [2] it was over 50 µM.
